Laboratory results reported in patent US7074807B2, “Compositions and methods for inducing cell death” (Georgetown University, priority 1998, dated 2006).

Tests used:
[1] = tested on: bovine aortic endothelial cells; assay: Apoptotic cell death by bisbenzamide trihydrochloride/Hoechst-33258 staining; format: cell-based; settings: 5 mM
SAPK = SAPK tyrosine phosphorylation (anti-SAPK IP, anti-PY immunoblot); format: cell-based, human; settings: 10 mM, time course, vs tempol or untreated controls
Method: FIGS. 5A, 5B, 5C. Tempo stimulates tyrosine phosphorylation and activity of SAPK. […] 5A. WCLs (1 mg) were immunoprecipitated with agarose-conjugated anti-SAPK antibody, followed by immunoblotting with anti-PY MAb. 5B. In other independent experiments, anti-SAPK immunoprecipitates were first probed with anti-PY MAb (top), and the blot was then reprobed with anti-SAPK antibody (bottom). 5C. […] WCLs were immunoprecipitated with anti-JNK1 antibody, and the JNK1 activity in immunoprecipitates was measured using GST-cJun (˜41 kDa) as a substrate. UT, untreated cells grown overnight in serum-free medium; CONT/Control, cells grown in serum-free medium overnight, and treated with 1% ethanol for 2 h.
Immunoprecipitation and Immunoblotting—Whole cell lysate (1 mg) was immunoprecipitated with the appropriate agarose-conjugated antibody (1 ug/ml of lysis buffer) overnight at 4° C. with constant agitation. For SAPK immunoprecipitation, WCL (1 mg) was immunoprecipitated with anti-SAPK antibody (5 ug/ml) overnight followed by addition of protein A-Agarose (50 ul of 250 ul/ml stock) and incubation for 2 h at 4° C. Immune-complex beads were collected by microcentrifugation at 15,000×g for 5 min followed by three washes with lysis buffer. […] The bands of interest were quantified by ImageQuant software version 3.3 (Molecular Dynamics Personal Densitometer, Sunnyvale, Calif.). […]

[2] = Apoptosis assay (annexin V-FITC/propidium iodide flow cytometry); settings: human
Method: FIGS. (7A1–7A3), (7B1–7B2), (7C1–7C3), (7D1–7D2), (7E1–7E3), (7F1–7F2). […] Cells were grown in serum-free medium overnight in T-25 flasks and treated with tempol (10 mM) or tempo (10 mM) for various times, trypsinized, and then resuspended in 200 ul 1× binding buffer as described in experimental procedures. The cell suspension was double-stained with annexin V-FITC and propidium iodide and analyzed by flow cytometry. Background signal was determined by comparison with double-stained, single-stained, or unstained control cells. (7A1–7A3), (7C1–7C3), and (7E1–7E3) are cytograms showing a relative distribution of viable (V), apoptotic (A), and necrotic (N) cells at 2 h following tempol or tempo treatment of MDA-MB 231 cells (A), PCI-04A cells (C), and PC-3 cells (E). (7B1–7B3), (7D1–7D2), and (7F1–7F2) are time course analyses of MDA-MB 231 cells (B), PCT-04A cells (D), and PC-3 cells (F). 100,000 cells were analyzed at each time point in triplicate (B) or quadruplicate (D and F). Solid bars, 1% ethanol, striped bars, 10 mM tempol, empty bars, 10 mM tempo. […] Data shown are representative from three to four independent experiments. (7B1–7B2), Time course analysis of MDA-MB 231 cells undergoing apoptosis (annexin V-FITC staining) (7B1), or necrosis (propidium iodide staining) (7B2). Values shown are mean±s.d. of triplicate determinations per time point in each treatment category, and representative of three to four independent experiments. […] (7D1–7D2), Time course analysis of PCI-04A cells undergoing apoptosis (annexin V-FITC staining) (7D1), or necrosis (propidium iodide staining) (7D2). Values shown are mean±s.d. of quadruplicate determinations per time point in each treatment category. […] (7F1–7F2), Time course analysis of PC-3 cells undergoing apoptosis (annexin V-FITC staining) (7F1), or necrosis (propidium iodide staining) (7F2). Values shown are mean±s.d. of quadruplicate determinations per time point in each treatment category. Control/C, cells treated with 1% ethanol for 2 h.
Apoptosis Assay—ApoAlert Annexin V apoptosis detection system (Clontech Lab Inc., Palo Alto, Calif.) was used to measure the relative distribution of apoptotic and necrotic cells. Briefly, cells were seeded at a density of 1×10^6 cells per 25 cm^2 tissue culture flask in medium containing 10% FBS overnight, followed by washing twice in serum-free medium. Cells were maintained overnight in serum-free medium and exposed to tempol (10 mM) or tempo (10 mM) for various times. This was followed by rinsing twice with serum-free medium prior to trypsinization, dilution in two volumes of serum-free medium, and centrifugation at 10,000× g. The cell pellet was washed once with PBS and resuspended in 200 ul of 1× binding buffer. The cell suspension was double-labeled with fluorescein isothiocyanate (FITC)-labeled annexin V (10 ul) and propidium iodide (PI) (10 ul) according to the manufacturer's instructions. Unlabeled cells or untreated cells labeled with either FITC-annexin V or PI, or double-labeled served as internal controls for the background signal. The intensity of the dye uptake by cells was detected using FACStar plus Flow Cytometer (Becton Dickerson, Lincoln Park, N.J.), and data were analyzed using Reproman True Facts software (Seattle, Wash.). Viable cells were FITC−/PI−, apoptotic cells were FITC+/PI−, and necrotic cells were FITC+/PI+.

[3] = previous in vitro studies, cited from earlier work

## CC1(C)CCCC(C)(C)N1[O] [tempo, 2,2,6,6-tetramethylpiperidine-N-oxyl]
[1]; 4 h
  apoptotic cell death: 3.97±0.33%
[1]; 8 h
  apoptotic cell death: 38.85±1.69%
SAPK
  level of phosphorylated SAPK (SAPKP): significant increase

## CC1(C)CC(O)CC(C)(C)N1[O] [tempol, 4-hydroxy-tempo, reference compound]
[2]
  viability at 2 h, 10 mM: 92.3%
[3]; 100 mM, radioprotection
  protection factor: 2.2
[3]
  concentration required to provide radioprotection: 5 to 10 mM
